Results on three molecules are retold here after US10167283B2, “β-lactamase inhibitors and uses thereof” (priority 2015, dated 2019).

Series [1] can be described thus: Pharmacokinetics in SD rats (iv). The series is classed as in vivo, SD rat. As to conditions: male, plasma; for half-life / clearance: SD, rat, iv, 1 mg/kg; for clearance: read-out: Cl—obs (converted); for Vd / AUC(0-t): SD rat, iv 1 mg/kg; for Vd: apparent volume of distribution, read-out: Vss—obs; for AUC(0-t): area under the curve 0→t. Here is the method: Experimental Example 1: Pharmacokinetics Experiments of the Compound of the Present Invention in Rats Test animals: 3 male SD rats, bodyweight 200-250 g for each animal. Test samples were administrated via intravenous push (iv), dosage of administration was 1 mg/kg, volume of administration was 2 mL/kg. Collecting time points: iv: after administration 0.083 […]. At each time point, about 100 μL of whole blood was sampled via caudal vein, added to K2EDTA anti-coagulative tube, centrifuged in a refrigerated centrifuge under 8000 rpm for 6 min to separate plasma, and the plasma was stored in -80° C. refrigerator. Plasma (20 μL) was taken and placed in a 96-well deep-well plate, and internal standard solution (300 μL) was added, subjected to vortex for 5 min, then centrifuged under 12000 rpm for 5 min, and then supernatant (200 μL) was taken and subjected to vortex for 3 min; to be analyzed by LC-MS/MS. Plasma (30 μL) was taken and placed in 1.5 mL EP tube, and internal standard solution (300 μL) was added, subjected to vortex for 5 min, then centrifuged under 12000 rpm for 5 min, and then supernatant (200 μL) was taken and subjected to vortex for 3 min; to be analyzed by LC-MS/MS. Plasma (30 μL) was taken and placed in a 96-well deep-well plate, and internal standard solution (200 μL) was added, subjected to vortex for 5 min, then centrifuged under 4000 rpm for 20 min, and then supernatant (100 μL) was taken and water (100 μL) was added, and subjected to vortex homogeneously; to be analyzed by LC-MS/MS.

The test system of series [2] is Enterobacter hormaechei BAA-2082 (KPC). Put plainly: In vitro antibacterial activity, agar dilution MIC. The series is classed as cell-based. As to conditions: BAA2082; Table 2; BAA-2082 Enterobacter hormaechei, KPC; read-out: MIC. A digest of the protocol: (§1)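 Susceptibility is tested on agar by dilution as set out in CLSI M100-S23. The value is the lowest inhibitory concentration, μg/mL.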
(Agar dilution tests growth on a series of plates holding different concentrations.)

For series [3], the system named is Escherichia coli BAA-2340 (KPC). Put plainly: In vitro antibacterial activity, agar dilution MIC. The format is cell-based. The following applies: BAA2340, Table 2, BAA-2340 Escherichia coli. A digest of the protocol: as §1
For series [4], the system named is Klebsiella oxytoca ATCC-51983 (SHV-5). Put plainly: In vitro antibacterial activity, agar dilution MIC. The format is cell-based. As to conditions: ATCC51983; Table 2; ATCC-51983 Klebsiella oxytoca, SHV-5; read-out: MIC. A digest of the protocol:
as §1

The conditions of series [5]: cited from earlier work.
Series [6] deals with T1, OXA-10 (Pseudomonas aeruginosa, UniProt P14489).
T1 construct: purchased
T1 sequence (P14489 20-266, species assumed): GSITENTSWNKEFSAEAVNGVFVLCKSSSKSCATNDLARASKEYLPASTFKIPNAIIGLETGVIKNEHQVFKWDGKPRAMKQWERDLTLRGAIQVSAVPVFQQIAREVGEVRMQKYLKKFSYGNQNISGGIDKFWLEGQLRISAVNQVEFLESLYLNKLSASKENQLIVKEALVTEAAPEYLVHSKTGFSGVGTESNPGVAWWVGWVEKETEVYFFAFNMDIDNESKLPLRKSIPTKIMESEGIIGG
Put plainly: β-lactamase inhibition, Nitrocefin hydrolysis. The series is classed as biochemical. The following applies: Experiment 3; enzyme 10 nM, Nitrocefin 0.1 mM; read-out: IC50 Type D OXA-10. A digest of the protocol:
(§2)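 Nitrocefin hydrolysis by each β-lactamase was followed as real-time absorbance, with the enzyme stock diluted 1000-fold in reaction solution. Inhibitors were tested at final concentrations from 100 μM down to 0.095 nM in four-fold steps. IC50 was calculated from the hydrolysis rates across inhibitor concentrations.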

Series [7] addresses T2, CTX-M-1 (Escherichia coli, UniProt P28585).
T2 construct: purchased
The experiment in a line: β-lactamase inhibition, Nitrocefin hydrolysis. The format is biochemical. The following applies: Experiment 2; enzyme 0.2 nM, Nitrocefin 0.1 mM. In short, it runs like this: as §2

For series [8], the target named is T3, KPC-2 (Klebsiella pneumoniae, UniProt Q9F663).
T3 construct: purchased
T3 sequence (Q9F663 25-293, looked up, species assumed): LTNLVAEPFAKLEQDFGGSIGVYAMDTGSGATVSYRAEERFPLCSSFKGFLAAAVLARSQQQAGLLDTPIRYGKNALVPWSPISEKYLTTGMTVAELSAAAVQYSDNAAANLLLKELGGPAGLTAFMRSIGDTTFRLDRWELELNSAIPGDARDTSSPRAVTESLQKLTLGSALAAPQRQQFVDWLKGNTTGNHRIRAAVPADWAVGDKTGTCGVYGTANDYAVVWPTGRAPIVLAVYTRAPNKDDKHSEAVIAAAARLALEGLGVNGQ
Put plainly: β-lactamase inhibition, Nitrocefin hydrolysis. The series is classed as biochemical. The following applies: Nitrocefin 0.1 mM. A digest of the protocol: as §2

Series [9] concerns the target T4, TEM-1 (Escherichia coli, UniProt P62593).
T4 construct: purchased
Put plainly: β-lactamase inhibition, Nitrocefin hydrolysis. The series is classed as biochemical. As to conditions: Nitrocefin 0.1 mM. A digest of the protocol:
as §2

The structures appear in SMILES notation. Where a name gives a salt, the structure may show the parent alone. Read-outs that look alike come from different tables or passages of the source. A value given as a limit tells only on which side of the number the result lay.

T4 sequence (P62593 24-286 limits assumed): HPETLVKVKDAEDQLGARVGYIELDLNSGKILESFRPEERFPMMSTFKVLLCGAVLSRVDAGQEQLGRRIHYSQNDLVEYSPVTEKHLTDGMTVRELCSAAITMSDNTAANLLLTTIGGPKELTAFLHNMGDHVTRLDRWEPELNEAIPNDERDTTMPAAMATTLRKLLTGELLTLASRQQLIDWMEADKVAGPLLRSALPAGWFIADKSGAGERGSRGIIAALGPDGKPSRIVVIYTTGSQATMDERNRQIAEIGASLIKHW
T2 sequence (P28585 29-291): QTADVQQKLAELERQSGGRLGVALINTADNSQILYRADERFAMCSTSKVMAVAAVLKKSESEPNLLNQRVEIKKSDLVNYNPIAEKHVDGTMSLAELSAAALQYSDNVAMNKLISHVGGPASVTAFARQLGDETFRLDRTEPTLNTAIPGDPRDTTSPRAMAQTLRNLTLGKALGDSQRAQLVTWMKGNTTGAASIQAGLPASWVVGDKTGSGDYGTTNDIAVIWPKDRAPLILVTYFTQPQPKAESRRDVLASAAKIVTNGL

As usually defined, the half-life is the time in which the quantity being followed falls by half. High values mean slow loss, low ones fast loss. Broadly, the AUC(0-t) is the area under the concentration-time curve up to a stated or last time point. Low values mean less exposure, high ones more exposure. One may read the MIC as the lowest concentration that inhibits growth of the organism. `O=C(NC1CCNCC1)[C@@H]1CC[C@@H]2CN1C(=O)N2OS(=O)(=O)O` [MK-7655, reference compound]: in series [1], the half-life is 23.4 min, the clearance was 16.7 mL/min/kg, the Vd was 0.409 L/kg and the AUC(0-t) came out at 1020 ng·h/mL. For the same molecule, the MIC in series [2] is greater than 16 µg/mL. Besides, the MIC in series [3] is greater than 16 µg/mL. In addition, the minimal inhibitory concentration (MIC) in series [4] is greater than 16 µg/mL. Further, the T1/2 in clinic in [5] is 102 min.

Usually IC50 stands for the concentration that inhibits the measured activity by half. For the molecule `NC(=O)[C@@H]1CC[C@@H]2CN1C(=O)N2OS(=O)(=O)O` [AVI sodium salt, Avibactam, reference compound], in series [1], the half-life is 24.6 min, the clearance was 14.9 mL/min/kg, the Vd worked out at 0.535 L/kg and the AUC(0-t) amounted to 1140 ng·h/mL. Further, the MIC in series [2] is greater than 8 µg/mL. In [3], this molecule displayed an MIC of 8 µg/mL. Further, the minimum inhibitory concentration (MIC) in series [4] is greater than 8 µg/mL. Moreover, the IC50 in series [6] worked out at 25.9 µM.

In the case of `O=C(NC1CC2(CNC2)C1)[C@@H]1CC[C@@H]2CN1C(=O)N2OS(=O)(=O)O` [Compound 2, (2S,5R)-2-((2-azaspiro[3.3]heptan-6-yl)carbamoyl)-7-oxo-1,6-diazabicyclo[3.2.1]octan-6-yl hydrogen sulfate], the half-life in series [1] was 44.4 min. In addition, in series [1], the clearance is 6.67 mL/min/kg. Further, the Vd in series [1] is 0.261 L/kg. In addition, the AUC(0-t) in [1] was determined as 2500 ng·h/mL. The MIC in [2] was 2 µg/mL; in series [3], 0.5 µg/mL; in series [4] it was 2 µg/mL. Further, the IC50 came out at 0.0423 µM in [7]; 0.0611 µM in [8] (Experiment 1, read-out: IC50 Type A KPC-2); 0.0347 µM in [8] (Experiment 2, enzyme 1.28 nM, read-out: IC50 KPC-2); 12.2 µM in series [6]; 0.0285 µM in [9] (Experiment 1, enzyme 0.25 nM, read-out: IC50 ESBLs type TEM-1); 0.0152 µM in series [9] (Experiment 2, enzyme 1 nM, read-out: IC50 TEM-1).
